In ChEMBL document CHEMBL1142123, “Guttiferones K and L, antiproliferative compounds of Rheedia calcicola from the Madagascar rain forest” (J Nat Prod, 2007) one finds IC50 data, which are given here for one compound.

Values after ≈ are worked out from the molar mass of the structure shown.

The test has as its system A2780. The test is described as follows: Antiproliferative activity against human A2780 cells. In kind it is functional, cell-based.

For `CC(C)=CCC[C@@]1(C)[C@H](CC=C(C)C)C[C@]2(CC=C(C)C)C(=O)[C@@]1(CC=C(C)C)C(=O)C(C(=O)c1cc(O)c(O)cc1O)=C2O` [GUTTIFERONE L], the IC50 came out at 3 µg/mL (≈ 4.85 µM).

One may read the IC50 as the concentration needed to halve the response being measured. A higher IC50 goes with a need for much substance.
